From ChEMBL document CHEMBL6153126, “Design, Synthesis, and Activity Evaluation of Novel Bifenamide Dual-Target Antibacterial Inhibitors and Carrier Based on Infectious Microenvironment” (J Med Chem, 2025)
Blank lines part the entries; values can stand above or below the compound they belong to. Activity calls are given as the source filed them. The rule behind the calls is not given here.

What was measured:
Klebsiella pneumoniae [1] = test: Antimicrobial activity against Klebsiella pneumoniae ATCC 13883 assessed as inhibition of microbial growth incubated for 64 hrs by broth-microdilution assay; format: functional
[2] = target: Programmed cell death 1 ligand 1 (Homo sapiens) (UniProt Q9NZQ7); test: Binding affinity to PD-L1 (unknown origin) assessed as Change in enthalpy by ITC analysis
Chain of Programmed cell death 1 ligand 1 (Homo sapiens) (Q9NZQ7 whole entry): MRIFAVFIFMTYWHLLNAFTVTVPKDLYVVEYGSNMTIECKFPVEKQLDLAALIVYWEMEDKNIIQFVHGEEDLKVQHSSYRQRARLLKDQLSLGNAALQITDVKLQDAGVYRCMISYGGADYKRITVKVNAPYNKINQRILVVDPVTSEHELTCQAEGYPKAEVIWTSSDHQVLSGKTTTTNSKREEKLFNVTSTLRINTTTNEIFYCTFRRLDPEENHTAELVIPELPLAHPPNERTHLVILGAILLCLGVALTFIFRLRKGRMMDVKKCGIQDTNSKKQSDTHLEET

Klebsiella pneumoniae [3] = test: Antimicrobial activity against Klebsiella pneumoniae ATCC 13883 assessed as inhibition zone; format: functional
[4] = target: Programmed cell death 1 ligand 1 (Homo sapiens) (UniProt Q9NZQ7); test: Binding affinity to PD-L1 (unknown origin) assessed as association constant at equilibrium by ITC analysis
[5] = target: T1, UDP-3-O-acyl-N-acetylglucosamine deacetylase (Escherichia coli K-12, UniProt P0A725); test: Inhibition of Escherichia coli LpxC
T1 sequence (P0A725 whole entry): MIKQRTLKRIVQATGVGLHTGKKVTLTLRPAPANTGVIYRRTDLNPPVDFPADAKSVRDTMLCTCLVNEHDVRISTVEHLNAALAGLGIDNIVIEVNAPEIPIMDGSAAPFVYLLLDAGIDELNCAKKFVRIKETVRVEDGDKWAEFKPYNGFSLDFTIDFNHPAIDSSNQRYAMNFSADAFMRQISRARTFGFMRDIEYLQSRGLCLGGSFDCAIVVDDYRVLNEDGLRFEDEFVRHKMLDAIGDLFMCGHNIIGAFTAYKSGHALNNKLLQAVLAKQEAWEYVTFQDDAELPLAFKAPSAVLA

Pseudomonas aeruginosa [6] = test: Antimicrobial activity against Pseudomonas aeruginosa ATCC 9027 assessed as inhibition of microbial growth incubated for 64 hrs by broth-microdilution assay; format: functional
HeLa = test: Cytotoxicity against human HeLa cells incubated for 24 hrs by CCK-8 assay; format: functional, cell-based
Escherichia coli = test: Antimicrobial activity against Escherichia coli ATCC 8739 assessed as inhibition of microbial growth incubated for 64 hrs by broth-microdilution assay; format: functional
[7] = Binding affinity to PD-L1 (unknown origin) assessed as dissociation constant by SPR analysis; parameters: species or system Homo sapiens
[8] = target: Programmed cell death protein 1/Programmed cell death 1 ligand 1 (Homo sapiens, UniProt Q9NZQ7); test: Inhibition of PD-1/PD-L1 (unknown origin) protein-protein interaction preincubated for 15 mins followed by PD-1-Eu addition and measured after 90 mins by TR-FRET assay; format: protein-complex assay
Chain of Programmed cell death protein 1/Programmed cell death 1 ligand 1 (Q15116 whole entry): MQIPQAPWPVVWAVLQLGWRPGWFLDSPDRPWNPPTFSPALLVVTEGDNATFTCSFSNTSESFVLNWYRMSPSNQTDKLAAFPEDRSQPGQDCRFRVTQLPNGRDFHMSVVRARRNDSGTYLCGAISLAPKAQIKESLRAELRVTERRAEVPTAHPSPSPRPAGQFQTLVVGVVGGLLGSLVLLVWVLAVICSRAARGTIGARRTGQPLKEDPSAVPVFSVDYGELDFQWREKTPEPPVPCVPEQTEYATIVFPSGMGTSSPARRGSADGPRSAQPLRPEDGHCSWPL
Chain of Programmed cell death protein 1/Programmed cell death 1 ligand 1 (Q9NZQ7 whole entry): as the sequence (Q9NZQ7 whole entry) above

Klebsiella pneumoniae [9] = test: Antimicrobial activity against Klebsiella pneumoniae ATCC 13883 assessed as increase in percentage of bacterial cells by flow cytometry analysis; format: functional, organism-based
[10] = target: T1, UDP-3-O-acyl-N-acetylglucosamine deacetylase; test: Binding affinity to Escherichia coli LpxC assessed as dissociation constant by SPR analysis
Pseudomonas aeruginosa [11] = test: Antimicrobial activity against Pseudomonas aeruginosa ATCC 9027 assessed as inhibition zone; format: functional; conditions: time 64 hrs
A549 = test: Cytotoxicity against human A549 cells incubated for 24 hrs by CCK-8 assay; format: functional, cell-based; conditions: A549, 24 h
Salmonella typhimurium = test: Antimicrobial activity against Salmonella typhimurium ATCC 14028 assessed as inhibition of microbial growth incubated for 64 hrs by broth-microdilution assay; format: functional, Salmonella enterica subsp. enterica serovar Typhimurium; conditions: Salmonella enterica
Klebsiella pneumoniae [12] = test: Induction of intracellular ROS accumulation in Klebsiella pneumoniae ATCC 13883 incubated for 12 hrs by fluorescence microscopic analysis; format: functional, organism-based
Klebsiella pneumoniae [13] = test: Antibacterial activity against Klebsiella pneumoniae ATCC 13883 infected in Kunming mouse model assessed as reduction in alveolar space in lung at 2 mg/kg, iv in presence of biphenyl isopropyl ester by H and E staining based analysis; format: functional, organism-based
Klebsiella pneumoniae [14] = test: Induction of morphological changes in Klebsiella pneumoniae ATCC 13883 assessed as reduction in cell membrane thickness measured for 24 hrs by transmission electron microscopy analysis; format: functional, organism-based
Klebsiella pneumoniae [15] = test: Downregulation of IFN-gamma expression in Klebsiella pneumoniae ATCC 13883 by Western blot analysis; format: functional
Klebsiella pneumoniae [16] = test: Bactericidal activity against Klebsiella pneumoniae ATCC 13883 assessed as reduction in survival rate by colony counting method; format: functional
[17] = Toxicity in Kunming mouse assessed as change in AST level at 2 mg/kg, iv (reference value: 91.5 +/- 7.2 IU/L); format: organism-based; conditions: in vivo
Klebsiella pneumoniae [18] = test: Downregulation of NF-kappaB expression in Klebsiella pneumoniae ATCC 13883 by Western blot analysis; format: functional
Klebsiella pneumoniae [19] = test: Antibacterial activity against Klebsiella pneumoniae ATCC 13883 infected in Kunming mouse model measured after 8 hrs; format: functional, organism-based
[20] = AUC (0 to t) in rat at 2 mg/kg, iv measured upto 24 hrs by LC-MS/MS analysis; format: ADME, organism-based; conditions: in vivo
[21] = Toxicity in Kunming mouse assessed as change in ALT level at 2 mg/kg, iv (reference value: 54.8 +/- 5.2 IU/L); format: organism-based; conditions: in vivo
Klebsiella pneumoniae [22] = test: Downregulation of NLRP3 expression in Klebsiella pneumoniae ATCC 13883 by Western blot analysis; format: functional
Klebsiella pneumoniae [23] = test: Downregulation of PD-L1 expression in Klebsiella pneumoniae ATCC 13883 by immunohistochemistry analysis; format: functional
[24] = Half life in rat at 2 mg/kg, iv measured upto 24 hrs by LC-MS/MS analysis; format: ADME, organism-based; conditions: in vivo
[25] = Toxicity in Kunming mouse assessed as lung damage at 2 mg/kg, iv by masson staining based analysis; format: organism-based; conditions: in vivo
Klebsiella pneumoniae [26] = test: Downregulation of IFN-gamma expression in Klebsiella pneumoniae ATCC 13883 by immunohistochemistry analysis; format: functional
[27] = Volume of distribution at steady state in rat at 2 mg/kg, iv measured upto 24 hrs by LC-MS/MS analysis; format: ADME, organism-based; conditions: in vivo
Klebsiella pneumoniae [28] = test: Antibacterial activity against Klebsiella pneumoniae ATCC 13883 infected in Kunming mouse model assessed as organised collagen fibers in skin tissue at 2 mg/kg, iv by Masson's trichome staining based analysis; format: functional, organism-based
Klebsiella pneumoniae [29] = test: Downregulation of PD-L1 expression in Klebsiella pneumoniae ATCC 13883 by Western blot analysis; format: functional
Klebsiella pneumoniae [30] = test: Induction of morphological changes in Klebsiella pneumoniae ATCC 13883 assessed as leakage in cellular contents measured for 48 hrs by transmission electron microscopy analysis; format: functional, organism-based
Klebsiella pneumoniae [31] = test: Downregulation of IL-2 expression in Klebsiella pneumoniae ATCC 13883 by immunohistochemistry analysis; format: functional
Klebsiella pneumoniae [32] = test: Downregulation of IL-2 expression in Klebsiella pneumoniae ATCC 13883 by Western blot analysis; format: functional
[33] = Toxicity in Kunming mouse assessed as change in CRE level at 2 mg/kg, iv (reference value: 16.7 +/- 1.6 micromol/L); format: organism-based; conditions: in vivo
Klebsiella pneumoniae [34] = test: Induction of morphological changes in Klebsiella pneumoniae ATCC 13883 assessed as leakage in cellular contents measured for 96 hrs by transmission electron microscopy analysis; format: functional, organism-based
[35] = Clearance in rat at 2 mg/kg, iv measured upto 24 hrs by LC-MS/MS analysis; format: ADME, organism-based; conditions: in vivo
Klebsiella pneumoniae [36] = test: Downregulation of PD-1 expression in Klebsiella pneumoniae ATCC 13883 by Western blot analysis; format: functional
[37] = Toxicity in Kunming mouse assessed as body weight loss at 2 mg/kg, iv; format: organism-based; conditions: in vivo
Klebsiella pneumoniae [38] = test: Induction of morphological changes in Klebsiella pneumoniae ATCC 13883 assessed as reduction in cell wall thickness measured for 24 hrs by transmission electron microscopy analysis; format: functional, organism-based
[39] = Toxicity in Kunming mouse assessed as side effect at 2 mg/kg, iv; format: organism-based; conditions: in vivo
[40] = Toxicity in Kunming mouse assessed as lung damage at 2 mg/kg, iv by H and E staining based analysis; format: organism-based; conditions: in vivo
Klebsiella pneumoniae [41] = test: Antibacterial activity against Klebsiella pneumoniae ATCC 13883 infected in Kunming mouse model assessed as reduction in alveolar space in lung at 2 mg/kg, iv by H and E staining based analysis; format: functional, organism-based
Klebsiella pneumoniae [42] = test: Downregulation of MMP9 expression in Klebsiella pneumoniae ATCC 13883 by Western blot analysis; format: functional
[43] = Toxicity in Kunming mouse assessed as change in BUN level at 2 mg/kg, iv (reference value: 11.2 +/- 2 mmol/L); format: organism-based; conditions: in vivo
Klebsiella pneumoniae [44] = test: Antibacterial activity against Klebsiella pneumoniae ATCC 13883 infected in Kunming mouse model assessed as reduction in bacterial proliferation at 2 mg/kg, iv; format: functional, organism-based
[45] = Initial plasma concentration in rat at 2 mg/kg, iv measured upto 24 hrs by LC-MS/MS analysis; format: ADME, organism-based
Klebsiella pneumoniae [46] = test: Antibacterial activity against Klebsiella pneumoniae ATCC 13883 infected in Kunming mouse model assessed as reduction in bacterial proliferation at 2 mg/kg, iv in presence of biphenyl isopropyl ester; format: functional, organism-based

SMILES: Cc1c(CN2CCC(C(=O)N3CCCC3C(=O)NO)CC2)cccc1-c1ccccc1 (stereo not given)
MIC50 (Klebsiella pneumoniae [1]): 0.5 mg/L
deltaH [2]: 3.08 kJ/mol
inhibition zone (IZ) (Klebsiella pneumoniae [3]): 14.4 mm
Ka [4]: 4.59 10^5/M
IC50 [5]: 4.3 µM
MIC50 (Pseudomonas aeruginosa [6]): 1 mg/L
IC50 (HeLa): > 50 µM
MIC50 (Escherichia coli): 1 mg/L
Kd [7]: 0.000135 µM
IC50 [8]: 0.318 µM
Activity (Klebsiella pneumoniae [9]): Active
Kd [10]: 0.000873 µM
inhibition zone (IZ) (Pseudomonas aeruginosa [11]): 12.6 mm
IC50 (A549): > 50 µM
MIC50 (Salmonella typhimurium): 2 mg/L
Activity (Klebsiella pneumoniae [12]): Active

SMILES: CC(C)OC(=O)[C@@H](CO)NCc1cc(Cl)c(OCc2cccc(-c3ccccc3)c2Br)cc1OCc1cccnc1
Activity (Klebsiella pneumoniae [13]): Active
deltaH [2]: 4.74 kJ/mol
Kd [7]: 0.000254 µM
Kd [10]: 0.000401 µM

SMILES: C[C@H](O)[C@H](NC(=O)c1ccc(C#Cc2ccc(CN3CCOCC3)cc2)cc1)C(=O)NO
Activity (Klebsiella pneumoniae [16]): 83%
AUC(0-t) at 24 h [20]: 0.289 µg·h/mL
MIC50 (Klebsiella pneumoniae [1]): 0.5 mg/L
half-life [24]: 0.54 h
Vdss ([27]; iv, 2 mg/kg, 24 h): 1.42 L/kg
inhibition zone (IZ) (Klebsiella pneumoniae [3]): 14.2 mm
MIC50 (Pseudomonas aeruginosa [6]): 1 mg/L
clearance [35]: 4.54 L/h/kg
Activity (Klebsiella pneumoniae [46]): Active
MIC50 (Escherichia coli): 2 mg/L
Activity (Klebsiella pneumoniae [9]): Active
Activity (Klebsiella pneumoniae [41]): Active
inhibition zone (IZ) (Pseudomonas aeruginosa [11]): 13.5 mm
MIC50 (Salmonella typhimurium): 0.5 mg/L
Activity (Klebsiella pneumoniae [12]): Active
C0 ([45]; in vivo, iv, 2 mg/kg, 24 h): 0.332 µg/mL

More lines, main results first:

AUC(0-t) at 24 h [20]: 0.431 µg·h/mL
MIC50 (Klebsiella pneumoniae [1]): 0.25 mg/L
half-life [24]: 2.39 h
Vd ([27]; read-out: Vdss): 5.71 L/kg
IC50 [5]: 5.2 µM
MIC50 (Pseudomonas aeruginosa [6]): 0.5 mg/L
clearance [35]: 3.82 L/h/kg
MIC50 (Escherichia coli): 0.5 mg/L
Kd [7]: 0.000523 µM
Kd [10]: 0.000357 µM
MIC50 (Salmonella typhimurium): 0.5 mg/L
C0 at 24 h ([45]; plasma): 0.649 µg/mL
SMILES: Cc1c(COc2cccc(CNC(C(=O)NO)C(C)O)c2)cccc1-c1ccccc1 (stereo not given)
Activity (Klebsiella pneumoniae [14]): Active
Activity (Klebsiella pneumoniae [15]): Active
Activity (Klebsiella pneumoniae [16]): Active
Activity [17]: 104.2 IU/L
Activity (Klebsiella pneumoniae [18]): Active
Activity (Klebsiella pneumoniae [19]): Active
Activity [21]: 34.5 IU/L
Activity (Klebsiella pneumoniae [22]): Active
Activity (Klebsiella pneumoniae [23]): Active
Activity [25]: Non-toxic
Activity (Klebsiella pneumoniae [26]): Active
deltaH [2]: 7.51 kJ/mol
inhibition zone (IZ) (Klebsiella pneumoniae [3]): 14.7 mm
Ka [4]: 6.04 10^5/M
Activity (Klebsiella pneumoniae [28]): Active
Activity (Klebsiella pneumoniae [29]): Active
Activity (Klebsiella pneumoniae [30]): Active
Activity (Klebsiella pneumoniae [31]): Active
Activity (Klebsiella pneumoniae [32]): Active
Activity [33]: 12.5 µmol/L
Activity (Klebsiella pneumoniae [34]): Active
IC50 (HeLa): > 50 µM
Activity (Klebsiella pneumoniae [36]): Active
Activity [37]: Non-toxic
Activity (Klebsiella pneumoniae [38]): Active
IC50 [8]: 0.081 µM
Activity [39]: Non-toxic
Activity (Klebsiella pneumoniae [9]): Active
Activity [40]: Non-toxic
Activity (Klebsiella pneumoniae [41]): Active
inhibition zone (IZ) (Pseudomonas aeruginosa [11]): 14.2 mm
IC50 (A549): > 50 µM
Activity (Klebsiella pneumoniae [42]): Active
Activity [43]: 8.6 mmol/L
Activity (Klebsiella pneumoniae [44]): Active
Activity (Klebsiella pneumoniae [12]): Active

MIC50 (Klebsiella pneumoniae [1]): 0.5 mg/L
IC50 [5]: 8.4 µM
MIC50 (Pseudomonas aeruginosa [6]): 0.5 mg/L
MIC50 (Escherichia coli): 0.5 mg/L
Kd [7]: 0.000135 µM
Kd [10]: 0.000873 µM
MIC50 (Salmonella typhimurium): 1 mg/L
SMILES: Cc1c(COc2cccc(CNC(CO)C(=O)NO)c2)cccc1-c1ccccc1 (stereo not given)
deltaH [2]: 4.16 kJ/mol
inhibition zone (IZ) (Klebsiella pneumoniae [3]): 15.2 mm
Ka [4]: 4.17 10^5/M
IC50 (HeLa): > 50 µM
IC50 [8]: 0.109 µM
Activity (Klebsiella pneumoniae [9]): Active
inhibition zone (IZ) (Pseudomonas aeruginosa [11]): 13.8 mm
IC50 (A549): > 50 µM
Activity (Klebsiella pneumoniae [12]): Active
